Assay results as given in PMC9120017, “Inhibition mechanism of the chloride channel TMEM16A by the pore blocker 1PBC” (Nature Communications, 2022).
Where two headings read alike, the source gives them in different places.

Molecular target: T1, mouse TMEM16A mutant T539A (Mus musculus, UniProt Q8BHY3, T539A)
T1 construct: expressed in transfected cells; host or cells: HEK293T
T1 sequence (Q8BHY3 1-960 T539A): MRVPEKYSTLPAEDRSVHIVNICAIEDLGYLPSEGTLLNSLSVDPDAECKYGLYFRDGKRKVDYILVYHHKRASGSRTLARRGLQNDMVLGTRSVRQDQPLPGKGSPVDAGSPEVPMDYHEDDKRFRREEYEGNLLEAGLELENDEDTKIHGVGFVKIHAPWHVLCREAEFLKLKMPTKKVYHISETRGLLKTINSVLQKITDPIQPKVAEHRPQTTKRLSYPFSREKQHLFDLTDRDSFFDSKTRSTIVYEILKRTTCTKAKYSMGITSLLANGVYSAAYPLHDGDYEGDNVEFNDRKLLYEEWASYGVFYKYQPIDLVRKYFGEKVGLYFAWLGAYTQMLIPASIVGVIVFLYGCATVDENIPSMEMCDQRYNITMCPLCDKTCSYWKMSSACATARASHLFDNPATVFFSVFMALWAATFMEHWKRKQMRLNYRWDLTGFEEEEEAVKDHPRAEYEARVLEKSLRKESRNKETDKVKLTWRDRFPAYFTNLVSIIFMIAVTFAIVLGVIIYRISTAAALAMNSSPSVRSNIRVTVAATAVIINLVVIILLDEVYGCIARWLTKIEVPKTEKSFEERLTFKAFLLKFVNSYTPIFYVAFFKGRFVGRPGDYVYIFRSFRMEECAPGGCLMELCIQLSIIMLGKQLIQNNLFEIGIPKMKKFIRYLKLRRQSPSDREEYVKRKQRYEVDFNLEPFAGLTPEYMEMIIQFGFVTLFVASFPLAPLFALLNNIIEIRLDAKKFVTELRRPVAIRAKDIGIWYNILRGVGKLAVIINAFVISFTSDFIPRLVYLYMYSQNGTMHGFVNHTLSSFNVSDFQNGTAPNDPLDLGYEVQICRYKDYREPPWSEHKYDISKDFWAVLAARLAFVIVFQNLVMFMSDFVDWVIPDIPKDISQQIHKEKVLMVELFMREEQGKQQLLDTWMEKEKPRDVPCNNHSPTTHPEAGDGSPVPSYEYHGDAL
Experiment: Inside-out patch recording of 1PBC block, mutant T539A
Type: cell-based
Conditions: for remaining activity at 30 µM: 1PBC 30; for remaining activity at 30 µM / remaining activity at 100 µM: read-out: fraction of unblocked current; for remaining activity at 100 µM: 1PBC 100
Method: HEK293T cells (ATCC CRL-1573) were maintained in Dulbecco’s modified Eagle’s medium (DMEM; Sigma-Aldrich) supplemented with 10 U ml^−1 penicillin, 0.1 mg ml^−1 streptomycin (Sigma-Aldrich), 2 mM L-glutamine (Sigma-Aldrich), and 10% FBS (Sigma-Aldrich) in a humidified atmosphere containing 5% CO2 at 37 °C. HEK293S GnTI^− cells (ATCC CRL-3022) were maintained in HyClone HyCell TransFx-H medium (GE Healthcare) supplemented with 10 U ml^−1 penicillin, 0.1 mg ml^−1 streptomycin, 4 mM L-glutamine, 0.15% poloxamer 188 (Sigma-Aldrich), and 1% FBS in an atmosphere containing 5% CO2 at 185 rpm at 37 °C. The ac splice variant of mouse TMEM16A (UniProt ID: Q8BHY3), mouse TMEM16B (UniProt ID: Q8CFW1), or mouse TMEM16F (UniProt ID: Q6P9J9) bearing a 3C cleavage site, a Venus YFP, a Myc tag, and a Streptavidin-binding peptide (SBP) downstream of the open reading frame in a modified pcDNA3.1 vector (Invitrogen) were used as described previously[21],[31]. Mutations were introduced using a modified QuikChange method[58] and were verified by sequencing.
HEK293T cells were transfected with 3–4 μg DNA per 6 cm Petri dish using the calcium phosphate co-precipitation method and were used within 24–96 h after transfection. Recordings were performed on inside-out patches excised from HEK293T cells expressing the construct of interest. Patch pipettes were pulled from borosilicate glass capillaries (O.D. 1.5 mm, I.D. 0.86 mm, Sutter Instrument) and were fire-polished with a microforge (Narishige) before use. Pipette resistance was typically 3–8 MΩ when filled with the recording solutions detailed below. Seal resistance was typically 4 GΩ or higher. Voltage-clamp recordings were made using Axopatch 200B, Digidata 1550, and Clampex 10.7 (Molecular Devices). Analog signals were filtered with the in-built 4-pole Bessel filter at 10 kHz and were digitized at 20 kHz. Solution exchange was achieved using a gravity-fed system through a theta glass pipette mounted on an ultra-fast piezo-driven stepper (Siskiyou). […] All recordings were performed at 20 °C.
A symmetrical ionic condition was used throughout. Stock solution with Ca^2+-EGTA contained 150 mM NaCl, 5.99 mM Ca(OH)2, 5 mM EGTA, and 10 mM HEPES at pH 7.40. Stock solution with EGTA contained 150 mM NaCl, 5 mM EGTA, and 10 mM HEPES at pH 7.40. Free Ca^2+ concentrations were adjusted by mixing the stock solutions at the required ratios calculated using the WEBMAXC program (http://web.stanford.edu/~cpatton/webmaxcS.htm). Patch pipettes were filled with the stock solution with Ca^2+-EGTA, which has a free Ca^2+ concentration of 1 mM. 1PBC (ChemBridge) stock was reconstituted in anhydrous DMSO (Sigma-Aldrich) at 100 mM and stored at −20 °C. Working solutions with 1PBC were prepared by serial dilution. Unless otherwise stated, experiments were performed at a saturating Ca^2+ concentration as shown in Supplementary Table 1 and the primary data were corrected for current rundown as described previously[21],[25].
Concentration-response relations, obtained from the ratio of the I-V plots before and after the application of the blocker, were fitted to the Hill equation,1 I/Imax=1/1+IC50/[blocker]^h where I/Imax is the normalized current responses, IC50 defines the concentration at which inhibition is at its half-maximum, and h is the Hill coefficient.

remaining activity at 30 µM (-60 mV): 46.1%
remaining activity at 30 µM (-80 mV): 49.4%
remaining activity at 30 µM (-100 mV): 53.7%
remaining activity at 30 µM (-120 mV): 55.9%
remaining activity at 30 µM (-140 mV): 58.7%
remaining activity at 100 µM (0 mV): 14.3%
remaining activity at 100 µM (20 mV): 11.9%
remaining activity at 100 µM (40 mV): 11.3%
remaining activity at 100 µM (60 mV): 10%
remaining activity at 100 µM (80 mV): 8.95%
remaining activity at 100 µM (100 mV): 7.58%
remaining activity at 100 µM (120 mV): 8.07%
remaining activity at 100 µM (140 mV): 8.23%
remaining activity at 100 µM (-20 mV): 16.6%
remaining activity at 100 µM (-40 mV): 18.5%
remaining activity at 100 µM (-60 mV): 21.3%
remaining activity at 100 µM (-80 mV): 25%
remaining activity at 100 µM (-100 mV): 28.2%
remaining activity at 100 µM (-120 mV): 30.6%
remaining activity at 100 µM (-140 mV): 34%
IC50 (20 mV, 2 µM Ca2+): 12.9 µM
IC50 (40 mV, 2 µM Ca2+): 11 µM
IC50 (60 mV, 2 µM Ca2+): 9.86 µM
log-fold IC50 (change of mutant vs WT) (80 mV): 0.6239
IC50 (80 mV, 2 µM Ca2+): 9.02 µM
IC50 (100 mV, 2 µM Ca2+): 8.74 µM
IC50 (120 mV, 2 µM Ca2+): 8.83 µM
IC50 (140 mV, 2 µM Ca2+): 9.45 µM
IC50 (-20 mV, 2 µM Ca2+): 17.3 µM
IC50 (-40 mV, 2 µM Ca2+): 20.5 µM
IC50 (-60 mV, 2 µM Ca2+): 24.4 µM
IC50 (-80 mV, 2 µM Ca2+): 28.9 µM
IC50 (-100 mV, 2 µM Ca2+): 34.3 µM
IC50 (-120 mV, 2 µM Ca2+): 38.6 µM
IC50 (-140 mV, 2 µM Ca2+): 44.4 µM
IC50 (T539A, V 0 mV): 14.9 µM
IC50 (T539A, V 20 mV): 12.9 µM
IC50 (T539A, V 40 mV): 11 µM
IC50 (T539A, V 60 mV): 9.86 µM
IC50 (T539A, V 80 mV): 9.02 µM
IC50 (T539A, V 100 mV): 8.74 µM
IC50 (T539A, V 120 mV): 8.83 µM
IC50 (T539A, V 140 mV): 9.45 µM
IC50 (T539A, V -20 mV): 17.3 µM
IC50 (T539A, V -40 mV): 20.5 µM
IC50 (T539A, V -60 mV): 24.4 µM
IC50 (T539A, V -80 mV): 28.9 µM
IC50 (T539A, V -100 mV): 34.3 µM
IC50 (T539A, V -120 mV): 38.6 µM
IC50 (T539A, V -140 mV): 44.4 µM
SMILES: N#Cc1c(C(F)(F)F)cc(O)n2c1nc1ccccc12 [1PBC]
